According to patent US8247556B2, “Method for preparing 6-substituted-7-aza-indoles” (Amgen Inc., priority 2005, dated 2012):
pIC50: −log10 of the molar value.

Tested on: VEGF-stimulated HUVEC proliferation (Human Umbilical Vein Endothelial cells)
Assay: HUVEC Proliferation Assay
Type: cell-based
Settings: VEGF 50 ng/mL, 72 h, CyQuant fluorescent dye, read-out: inhibited VEGF-stimulated HUVEC proliferation at a level
Description: Human Umbilical Vein Endothelial cells are purchased from Clonetics, Inc., as cryopreserved cells harvested from a pool of donors. These cells, at passage 1, are thawed and expanded in EBM-2 complete medium, until passage 2 or 3. The cells are trypsinized, washed in DMEM+10% FBS+antibiotics, and spun at 1000 rpm for 10 min. Prior to centrifugation of the cells, a small amount is collected for a cell count. After centrifugation, the medium is discarded, and the cells are resuspended in the appropriate volume of DMEM+10% FBS+antibiotics to achieve a concentration of 3×10^5 cells/mL. Another cell count is performed to confirm the cell concentration. The cells are diluted to 3×10^4 cells/mL in DMEM+10% FBS+antibiotics, and 100 μL of cells are added to a 96-well plate. The cells are incubated at 37° C. for 22 h.
Prior to the completion of the incubation period, compound dilutions are prepared. Five-point, five-fold serial dilutions are prepared in DMSO, at concentrations 400-fold greater than the final concentrations desired. 2.5 μL of each compound dilution are diluted further in a total of 1 mL DMEM+10% FBS+antibiotics (400× dilution). Medium containing 0.25% DMSO is also prepared for the 0 μM compound sample. At the 22 h time point, the medium is removed from the cells, and 100 μL of each compound dilution is added. The cells are incubated at 37° C. for 2-3 h.
During the compound pre-incubation period, the growth factors are diluted to the appropriate concentrations. Solutions of DMEM+10% FBS+antibiotics, containing either VEGF or bFGF at the following concentrations: 50, 10, 2, 0.4, 0.08, and 0 ng/mL are prepared. For the compound-treated cells, solutions of VEGF at 550 ng/mL or bFGF at 220 ng/mL for 50 ng/mL or 20 ng/mL final concentrations, respectively, are prepared since 10 μL of each will be added to the cells (110 μL final volume). At the appropriate time after adding the compounds, the growth factors are added. VEGF is added to one set of plates, while bFGF is added to another set of plates. For the growth factor control curves, the media on wells B4-G6 of plates 1 and 2 are replaced with media containing VEGF or bFGF at the varying concentrations (50-0 ng/mL). The cells are incubated at 37° C. for an additional 72 h.
At the completion of the 72 h incubation period, the medium is removed, and the cells are washed twice with PBS. After the second wash with PBS, the plates are tapped gently to remove excess PBS, and the cells are placed at −70° C. for at least 30 min. The cells are thawed and analyzed using the CyQuant fluorescent dye (Molecular Probes C-7026), following the manufacturer's recommendations. The plates are read on a Victor/Wallac 1420 workstation at 485 nm/530 nm (excitation/emission). Raw data are collected and analyzed using a 4-parameter fit equation in XLFit. IC50 values are then determined.

SMILES	pIC50
O=C(Nc1ccc2c(c1)NCC21CC1)c1cccnc1NCc1ccnc2[nH]ccc12 [Example 8]	> 6.30
CC1(C)CNCc2cc(NC(=O)c3cccnc3NCc3ccnc4[nH]ccc34)cnc21 [Example 11]	> 6.30
O=C(Nc1ccc(C(O)(C(F)(F)F)C(F)(F)F)cc1)c1cccnc1NCc1ccnc2[nH]ccc12 [Example 17, 2-[(1H-Pyrrolo[2,3-b]pyridin-4-ylmethyl)amino]-N-{4-[2,2,2-trifluoro-1-hydroxy-1-(trifluoromethyl)ethyl]phenyl}nicotinamide]	> 6.30
O=C(Nc1cccc(C(OC[C@@H]2CCCN2)(C(F)(F)F)C(F)(F)F)c1)c1cccnc1NCc1ccnc2[nH]ccc12 [Example 19, (S)-2-((1H-pyrrolo[2,3-b]pyridin-4-yl)methylamino)-N-(3-(1,1,1,3,3,3-hexafluoro-2-(pyrrolidin-2-ylmethoxy)propan-2-yl)phenyl)nicotinamide]	> 6.30
O=C(Nc1ccc(C(OC[C@@H]2CCCN2)(C(F)(F)F)C(F)(F)F)cc1)c1cccnc1NCc1ccnc2[nH]ccc12 [Example 20, (S)-2-((1H-pyrrolo[2,3-b]pyridin-4-yl)methylamino)-N-(4-(1,1,1,3,3,3-hexafluoro-2-(pyrrolidin-2-ylmethoxy)propan-2-yl)phenyl)nicotinamide]	> 6.30
CC1(C)CN(C(=O)[C@@H]2CCN2)c2cc(NC(=O)c3cccnc3NCc3ccnc4[nH]ccc34)ccc21 [Example 23, N-{1-[(2S)-Azetidin-2-ylcarbonyl]-3,3-dimethyl-2,3-dihydro-1H-indol-6-yl}-2-[(1H-pyrrolo[2,3-b]pyridin-4-ylmethyl)amino]nicotinamide]	> 6.30
CC1(C)CNCc2cc(NC(=O)c3cccnc3NCc3ccnc4c3CCN4)ccc21 [Example 25, 2-[(2,3-Dihydro-1H-pyrrolo[2,3-b]pyridin-4-ylmethyl)amino]-N-(4,4-dimethyl-1,2,3,4-tetrahydroisoquinolin-7-yl)nicotinamide]	> 6.30
CN1CCC[C@H]1COc1cc(NC(=O)c2cccnc2NCc2ccnc3[nH]ccc23)cc(C(F)(F)F)c1 [Example 35, N-[3-{[(2S)-1-methylpyrrolidin-2-yl]methoxy}-5-(trifluoromethyl)phenyl]-2-[(1H-pyrrolo[2,3-b]pyridin-4-ylmethyl)amino]nicotinamide]	> 6.30
Cc1nc2cc(NC(=O)c3ccc(F)nc3NCc3ccnc4[nH]ccc34)ccc2s1 [Example 37, 2-((1H-Pyrrolo[2,3-b]pyridin-4-yl)methylamino)-6-fluoro-N-(2-methylbenzo[d]thiazol-5-yl)nicotinamide]	> 6.30
COC(c1ccc(NC(=O)c2cccnc2NCc2ccnc3[nH]ccc23)cc1)(C(F)(F)F)C(F)(F)F [Example 44, 2-[(1H-Pyrrolo[2,3-b]pyridin-4-ylmethyl)-amino]-N-[4-(2,2,2-trifluoro-1-methoxy-1-trifluoromethyl-ethyl)-phenyl]-nicotinamide]	> 6.30
O=C(Nc1ccc(C(F)(F)C(F)(F)F)c(CN2CCNCC2)c1)c1cccnc1NCc1ccnc2[nH]ccc12 [Example 45, N-(4-Pentafluoroethyl-3-piperazin-1-ylmethyl-phenyl)-2-[(1H-pyrrolo[2,3-b]pyridin-4-ylmethyl)-amino]-nicotinamide]	> 6.30
CN1CCN(Cc2cc(NC(=O)c3cccnc3NCc3ccnc4[nH]ccc34)ccc2C(F)(F)C(F)(F)F)CC1 [Example 46, N-[3-(4-Methyl-piperazin-1-ylmethyl)-4-pentafluoroethyl-phenyl]-2-[(1H-pyrrolo[2,3-b]pyridin-4-ylmethyl)-amino]-nicotinamide]	> 6.30
O=C(Nc1cc(O[C@@H]2CCOC2)cc(C(F)(F)F)c1)c1cccnc1NCc1ccnc2[nH]ccc12 [Example 47, 2-[(1H-pyrrolo[2,3-b]pyridin-4-ylmethyl)amino]-N-[3-[(3R)-tetrahydrofuran-3-yloxy]-5-(trifluoromethyl)phenyl]nicotinamide]	> 6.30
O=C(Nc1ccc2ncccc2c1)c1cccnc1NCc1ccnc2[nH]ccc12 [Example 53, 2-[(1H-Pyrrolo[2,3-b]pyridin-4-ylmethyl)-amino]-N-quinolin-6-yl-nicotinamide]	> 6.30
O=C(Nc1ccc2ccncc2c1)c1cccnc1NCc1ccnc2[nH]ccc12 [Example 55, N-Isoquinolin-7-yl-2-[(1H-pyrrolo[2,3-b]pyridin-4-ylmethyl)-amino]-nicotinamide]	> 6.30
O=C(Nc1ccc(C(F)(F)F)c(OCC2CCCO2)c1)c1cccnc1NCc1ccnc2[nH]ccc12 (stereo not drawn) [Example 57, 2-[(1H-Pyrrolo[2,3-b]pyridin-4-ylmethyl)-amino]-N-[3-(tetrahydro-furan-2-ylmethoxy)-4-trifluoromethyl-phenyl]-nicotinamide]	> 6.30
CN1CCC(Cc2cc(NC(=O)c3cccnc3NCc3ccnc4[nH]ccc34)cc(C(F)(F)F)c2)CC1 [Example 58, N-[3-(1-Methyl-piperidin-4-ylmethyl)-5-trifluoromethyl-phenyl]-2-[(1H-pyrrolo[2,3-b]pyridin-4-ylmethyl)-amino]-nicotinamide]	> 6.30
O=C(Nc1cc(CCCN2CCOCC2)cc(C(F)(F)F)c1)c1cccnc1NCc1ccnc2[nH]ccc12 [Example 60, N-(3-(3-(4-morpholinyl)propyl)-5-(trifluoromethyl)phenyl)-2-((1H-pyrrolo[2,3-b]pyridin-4-ylmethyl)amino)-3-pyridinecarboxamide]	> 6.30
O=C(Nc1cc(CCCN2CCCCC2)cc(C(F)(F)F)c1)c1cccnc1NCc1ccnc2[nH]ccc12 [Example 62, N-[3-(3-Piperidin-1-yl-propyl)-5-trifluoromethyl-phenyl]-2-[(1H-pyrrolo[2,3-b]pyridin-4-ylmethyl)-amino]-nicotinamide]	> 6.30
O=C(Nc1ccc(C(F)(F)C(F)(F)F)c(OCCN2CCCC2)c1)c1cccnc1NCc1ccnc2[nH]ccc12 [Example 63, N-[4-pentafluoroethyl-3-(2-pyrrolidin-1-yl-ethoxy)-phenyl]-2-[(1H-pyrrolo[2,3-b]pyridin-4-ylmethyl)-amino]-nicotinamide]	> 6.30
CC1(C)CCNc2cc(NC(=O)c3cccnc3NCc3ccnc4[nH]ncc34)ccc21 [Example 71, N-(4,4-Dimethyl-1,2,3,4-tetrahydro-7-quinolinyl)-2-((1H-pyrazolo[3,4-b]pyridin-4-ylmethyl)amino)-3-pyridinecarboxamide]	> 6.30
CC1(C)CCNc2cc(NC(=O)c3cccnc3NCc3ccnc4c3CC(=O)N4)ccc21 [Example 73, N-(4,4-Dimethyl-1,2,3,4-tetrahydro-quinolin-7-yl)-2-[(2-oxo-2,3-dihydro-1H-pyrrolo[2,3-b]pyridin-4-ylmethyl)-amino]-nicotinamide]	> 6.30
Cc1nc2cc(NC(=O)c3cc(F)cnc3NCc3ccnc4[nH]ccc34)ccc2s1 [Example 77, 5-fluoro-N-(2-methyl-1,3-benzothiazol-5-yl)-2-((1H-pyrrolo[2,3-b]pyridin-4-ylmethyl)amino)-3-pyridinecarboxamide]	> 6.30
CC(C)(C)c1ccc(NC(=O)c2cc(Cl)cnc2NCc2ccnc3[nH]ccc23)cc1 [Example 88, 5-chloro-N-(4-(1,1-dimethylethyl)phenyl)-2-((1H-pyrrolo[2,3-b]pyridin-4-ylmethyl)amino)-3-pyridinecarboxamide]	> 6.30
